Consider 34 compounds from patent US9242970B2 (ACTELION PHARMACEUTICALS LTD., priority 2010, dated 2016).

Like-named read-outs stand apart in the source and are kept apart here.

The target in one assay is human orexin-1 receptor (Homo sapiens (Human), UniProt O43613). Description: In vitro assay: intracellular calcium measurements (FLIPR), antagonistic activity. It is filed as cell-based. Particulars: CHO cells, 3 nM orexin-A, marked values are geometric means of n = 2-6, read-out: IC50 OX1. A general note: Calcium flux is commonly read through the fluorescence of an indicator in the cells.
human orexin-1 receptor, sequence (O43613 whole entry): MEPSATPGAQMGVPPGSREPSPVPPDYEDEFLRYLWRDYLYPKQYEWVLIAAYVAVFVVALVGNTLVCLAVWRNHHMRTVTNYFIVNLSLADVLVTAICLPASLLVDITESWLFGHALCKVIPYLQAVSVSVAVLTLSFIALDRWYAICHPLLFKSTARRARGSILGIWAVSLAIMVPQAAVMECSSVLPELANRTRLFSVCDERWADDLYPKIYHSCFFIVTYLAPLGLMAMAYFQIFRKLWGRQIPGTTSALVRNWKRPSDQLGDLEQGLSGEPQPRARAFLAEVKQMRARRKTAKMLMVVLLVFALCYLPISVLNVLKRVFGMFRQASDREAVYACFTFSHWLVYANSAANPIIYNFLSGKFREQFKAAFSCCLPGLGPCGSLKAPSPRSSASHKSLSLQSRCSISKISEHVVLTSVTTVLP

Another assay deals with human orexin-2 receptor (Homo sapiens (Human), UniProt O43614). Described as above. The class given is cell-based. Particulars: CHO cells, 3 nM orexin-A, marked values are geometric means of n = 2-6, read-out: IC50 OX2.
human orexin-2 receptor, sequence (O43614 whole entry): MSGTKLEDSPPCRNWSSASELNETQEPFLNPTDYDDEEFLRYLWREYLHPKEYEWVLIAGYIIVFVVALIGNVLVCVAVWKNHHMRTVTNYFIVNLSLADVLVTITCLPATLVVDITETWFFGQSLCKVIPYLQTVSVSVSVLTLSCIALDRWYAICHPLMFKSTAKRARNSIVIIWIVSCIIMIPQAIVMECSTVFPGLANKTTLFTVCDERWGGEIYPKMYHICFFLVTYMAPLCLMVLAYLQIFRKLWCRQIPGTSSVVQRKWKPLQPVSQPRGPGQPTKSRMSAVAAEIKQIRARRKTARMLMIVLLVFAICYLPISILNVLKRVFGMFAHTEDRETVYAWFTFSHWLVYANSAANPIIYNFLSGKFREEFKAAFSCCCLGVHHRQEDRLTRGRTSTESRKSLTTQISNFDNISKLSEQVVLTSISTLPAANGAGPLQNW
The mark [1] stands for this setting: compound incubation time of 10 min.

Consider `COc1cccc(OC)c1C1CCCC(=O)N1Cc1ccc(N2CCCC2)cc1` (centres unmarked) [Example 245, 6-(2,6-dimethoxyphenyl)-1-(4-(pyrrolidin-1-yl)benzyl)piperidin-2-one], for which the IC50 (as a rule, the midpoint of a concentration-inhibition curve) came out at 1070 nM at human orexin-1 receptor (setting [1]) and 132 nM on human orexin-2 receptor (setting [1]).

As to `COc1cccc(OC)c1C1CCCC(=O)N1Cc1ccc(OCC(F)(F)F)cc1` (centres unmarked) [Example 246, 6-(2,6-dimethoxyphenyl)-1-(4-(2,2,2-trifluoroethoxy)benzyl)piperidin-2-one], the IC50 on human orexin-1 receptor (setting [1]) worked out at 665 nM; at human orexin-2 receptor (setting [1]), 11 nM.

On to `COc1cccc(OC)c1C1CCCC(=O)N1Cc1cc2ccccc2n1C` (centres unmarked) [Example 247, 6-(2,6-dimethoxyphenyl)-1-((1-methyl-1H-indol-2-yl)methyl)piperidin-2-one], for which the IC50 on human orexin-1 receptor (setting [1]) amounted to 132 nM; on human orexin-2 receptor (setting [1]), 41 nM.

In the case of `COc1cccc(OC)c1C1CCCC(=O)N1Cc1ccc(S(C)(=O)=O)cc1` (centres unmarked) [Example 248, 6-(2,6-dimethoxyphenyl)-1-(4-(methylsulfonyl)benzyl)piperidin-2-one], the IC50 on human orexin-1 receptor (setting [1]) stood at 7250 nM; on human orexin-2 receptor (setting [1]), 1710 nM.

Take `COc1cccc(OC)c1C1CCCC(=O)N1Cc1ccc2oc(C)nc2c1` (centres unmarked) [Example 249, 6-(2,6-dimethoxyphenyl)-1-((2-methylbenzo[d]oxazol-5-yl)methyl)piperidin-2-one]: the IC50 was found to be 334 nM on human orexin-1 receptor (compound incubation 120 min) and 223 nM on human orexin-2 receptor (compound incubation 120 min).

In the case of `COc1cccc(OC)c1C1CCCC(=O)N1Cc1ccc2sccc2c1` (centres unmarked) [Example 250, 1-(benzo[b]thiophen-5-ylmethyl)-6-(2,6-dimethoxyphenyl)piperidin-2-one], the IC50 on human orexin-1 receptor (setting [1]) amounted to 204 nM; at human orexin-2 receptor (setting [1]), 140 nM.

Turning to `CCOc1ccccc1C1CCCC(=O)N1Cc1ccc(OC(F)(F)F)cc1` (centres unmarked) [Example 251, 6-(2-ethoxyphenyl)-1-(4-(trifluoromethoxy)benzyl)piperidin-2-one], the IC50 on human orexin-1 receptor (setting [1]) is 4070 nM; at human orexin-2 receptor (setting [1]), 426 nM.

On to `O=C1CCCC(c2ccccc2OC(F)(F)F)N1Cc1ccc(OC(F)(F)F)cc1` (centres unmarked) [Example 252, 1-(4-(trifluoromethoxy)benzyl)-6-(2-(trifluoromethoxy)phenyl)piperidin-2-one], for which the results for the IC50 at human orexin-1 receptor (setting [1]) and on human orexin-2 receptor (setting [1]) were 9370 nM and 2660 nM, respectively.

As for `COc1cccc(OC)c1C1CC(F)(F)C(=O)N1Cc1ccc(OC(F)(F)F)cc1` (centres unmarked) [Example 256, 5-(2,6-dimethoxyphenyl)-3,3-difluoro-1-(4-(trifluoromethoxy)benzyl)pyrrolidin-2-one], the IC50 at human orexin-1 receptor (setting [1]) worked out at 193 nM; on human orexin-2 receptor (setting [1]) it was 133 nM.

Consider `COc1cccc(OC)c1C1COCC(=O)N1Cc1ccc(OC(F)(F)F)cc1` (centres unmarked) [Example 266, 5-(2,6-dimethoxyphenyl)-4-(4-(trifluoromethoxy)benzyl)morpholin-3-one], for which the IC50 turned out to be 412 nM at human orexin-1 receptor (setting [1]) and 86 nM on human orexin-2 receptor (setting [1]).

On to `COc1cccc(OC)c1C1CNCC(=O)N1Cc1ccc(OC(F)(F)F)cc1` (centres unmarked) [Example 267, 6-(2,6-dimethoxyphenyl)-1-(4-(trifluoromethoxy)benzyl)piperazin-2-one], for which the IC50 turned out to be 2680 nM on human orexin-1 receptor (setting [1]) and 589 nM on human orexin-2 receptor (setting [1]).

On to `COc1cccc(OC)c1C1CN(C)CC(=O)N1Cc1ccc(OC(F)(F)F)cc1` (centres unmarked) [Example 268, 6-(2,6-dimethoxyphenyl)-4-methyl-1-(4-(trifluoromethoxy)benzyl)piperazin-2-one], for which the IC50 on human orexin-1 receptor (setting [1]) turned out to be 1270 nM; on human orexin-2 receptor (setting [1]) it was 410 nM.

As to `COc1ncnc(OC)c1C1CCCC(=O)N1Cc1cccc(-c2csc(C)n2)c1` (centres unmarked) [Example 269, 6-(4,6-dimethoxypyrimidin-5-yl)-1-(3-(2-methylthiazol-4-yl)benzyl)piperidin-2-one], the values for the IC50 on human orexin-1 receptor (compound incubation 120 min) and on human orexin-2 receptor (compound incubation 120 min) were 1030 nM and 619 nM, respectively.

Regarding `COc1ncnc(OC)c1C1CCCC(=O)N1Cc1cccc(-c2ccccc2)c1` (centres unmarked) [Example 270, 1-([1,1′-biphenyl]-3-ylmethyl)-6-(4,6-dimethoxypyrimidin-5-yl)piperidin-2-one], the IC50 is 568 nM on human orexin-1 receptor (compound incubation 120 min) and 412 nM at human orexin-2 receptor (compound incubation 120 min).

Turning to `COc1ncnc(OC)c1C1CCCC(=O)N1Cc1csc(-c2ccccc2)n1` (centres unmarked) [Example 271, 6-(4,6-dimethoxypyrimidin-5-yl)-1-((2-phenylthiazol-4-yl)methyl)piperidin-2-one], the IC50 came to 5690 nM on human orexin-1 receptor (compound incubation 120 min) and 256 nM on human orexin-2 receptor (compound incubation 120 min).

Turning to `Cc1nc(-c2cccc(CN3C(=O)CCCC3c3cccc4c3OCCO4)c2)cs1` (centres unmarked) [Example 272, 6-(2,3-dihydrobenzo[b][1,4]dioxin-5-yl)-1-(3-(2-methylthiazol-4-yl)benzyl)piperidin-2-one], the IC50 at human orexin-1 receptor (compound incubation 120 min) was found to be 510 nM; at human orexin-2 receptor (compound incubation 120 min) it was 229 nM.

Turning to `O=C1CCCC(c2cccc3c2OCCO3)N1Cc1cccc(-c2ccccc2)c1` (centres unmarked) [Example 273, 1-([1,1′-biphenyl]-3-ylmethyl)-6-(2,3-dihydrobenzo[b][1,4]dioxin-5-yl)piperidin-2-one], the IC50 at human orexin-1 receptor (compound incubation 120 min) amounted to 795 nM; on human orexin-2 receptor (compound incubation 120 min), 296 nM.

Take `COc1cncc(OC)c1C1CCCCC(=O)N1Cc1cccc(-c2csc(C)n2)c1` (centres unmarked) [Example 274, 7-(3,5-dimethoxypyridin-4-yl)-1-(3-(2-methylthiazol-4-yl)benzyl)azepan-2-one]: the IC50 was found to be 23 nM on human orexin-1 receptor (compound incubation 120 min) and 64 nM on human orexin-2 receptor (compound incubation 120 min).

Take `COc1cncc(OC)c1C1CCCCC(=O)N1Cc1cccc(-c2ccccc2)c1` (centres unmarked) [Example 275, 1-([1,1′-biphenyl]-3-ylmethyl)-7-(3,5-dimethoxypyridin-4-yl)azepan-2-one]: the IC50 is 50 nM at human orexin-1 receptor (compound incubation 120 min) and 80 nM at human orexin-2 receptor (compound incubation 120 min).

In the case of `COc1cncc(OC)c1C1CCCCC(=O)N1Cc1ccc2c(c1)c1ccccc1n2C` (centres unmarked) [Example 276, 7-(3,5-dimethoxypyridin-4-yl)-1-((9-methyl-9H-carbazol-3-yl)methyl)azepan-2-one], the IC50 on human orexin-1 receptor (compound incubation 120 min) amounted to 347 nM; on human orexin-2 receptor (compound incubation 120 min), 222 nM.

For the compound `COc1cncc(OC)c1C1CCCCC(=O)N1Cc1csc(-c2ccccc2)n1` (centres unmarked) [Example 277, 7-(3,5-dimethoxypyridin-4-yl)-1-((2-phenylthiazol-4-yl)methyl)azepan-2-one], the IC50 on human orexin-1 receptor (compound incubation 120 min) was determined as 214 nM; at human orexin-2 receptor (compound incubation 120 min), 182 nM.

Consider `COc1cccc(OC)c1C1CCCC(=O)N1Cc1csc(Oc2ccccc2)n1` (centres unmarked) [Example 278, 6-(2,6-dimethoxyphenyl)-1-((2-phenoxythiazol-4-yl)methyl)piperidin-2-one], for which the IC50 stood at 250 nM on human orexin-1 receptor (compound incubation 120 min) and 172 nM at human orexin-2 receptor (compound incubation 120 min).

As for `COc1ccc2nc(C)oc2c1C1CCCC(=O)N1Cc1ccc2ccccc2n1` (centres unmarked) [Example 279, 6-(6-methoxy-2-methylbenzo[d]oxazol-7-yl)-1-(quinolin-2-ylmethyl)piperidin-2-one], the IC50 at human orexin-1 receptor (compound incubation 120 min) is 623 nM; on human orexin-2 receptor (compound incubation 120 min), 1030 nM.

In the case of `COc1ccc2ncoc2c1C1CCCC(=O)N1Cc1ccc2ccccc2n1` (centres unmarked) [Example 280, 6-(6-methoxybenzo[d]oxazol-7-yl)-1-(quinolin-2-ylmethyl)piperidin-2-one], the IC50 was 1820 nM on human orexin-1 receptor (compound incubation 120 min) and 1800 nM on human orexin-2 receptor (compound incubation 120 min).

In the case of `COc1ccc(Cl)c(OC)c1C1CCCC(=O)N1Cc1cccc(-c2csc(C)n2)c1` (centres unmarked) [Example 281, 6-(3-chloro-2,6-dimethoxyphenyl)-1-(3-(2-methylthiazol-4-yl)benzyl)piperidin-2-one], the IC50 was 42 nM on human orexin-1 receptor (compound incubation 120 min) and 115 nM at human orexin-2 receptor (compound incubation 120 min).

As for `COc1cccc(OC)c1C1CCC(=O)N1Cc1ccc(Oc2nccs2)cc1` (centres unmarked) [Example 282, 5-(2,6-dimethoxyphenyl)-1-(4-(thiazol-2-yloxy)benzyl)pyrrolidin-2-one], the figures for the IC50 at human orexin-1 receptor (compound incubation 120 min) and on human orexin-2 receptor (compound incubation 120 min) were 139 nM and 213 nM, respectively.

On to `Cc1nc(-c2cccc(CN3C(=O)CCCC3c3ccccc3-c3ccccc3)c2)cs1` (centres unmarked) [Example 283, 6-([1,1′-biphenyl]-2-yl)-1-(3-(2-methylthiazol-4-yl)benzyl)piperidin-2-one], for which the IC50 on human orexin-1 receptor (compound incubation 120 min) was 275 nM; on human orexin-2 receptor (compound incubation 120 min), 548 nM.

`O=C1CCCC(c2ccccc2-c2ccccc2)N1Cc1cccc(-c2ccccc2)c1` (centres unmarked) [Example 284, 6-([1,1′-biphenyl]-2-yl)-1-([1,1′-biphenyl]-3-ylmethyl)piperidin-2-one]: the figures for the IC50 at human orexin-1 receptor (compound incubation 120 min) and at human orexin-2 receptor (compound incubation 120 min) were 1450 nM and 722 nM, respectively.

For `O=C1CCC(c2ccccc2-c2ccccc2)N1Cc1cccc(-c2ccccc2)c1` (centres unmarked) [Example 285, 5-([1,1′-biphenyl]-2-yl)-1-([1,1′-biphenyl]-3-ylmethyl)pyrrolidin-2-one], the figures for the IC50 on human orexin-1 receptor (compound incubation 120 min) and at human orexin-2 receptor (compound incubation 120 min) were 243 nM and 533 nM, respectively.

Turning to `Cc1nc(-c2cccc(CN3C(=O)CCC3c3ccccc3-c3ccccc3)c2)cs1` (centres unmarked) [Example 286, 5-([1,1′-biphenyl]-2-yl)-1-(3-(2-methylthiazol-4-yl)benzyl)pyrrolidin-2-one], the IC50 on human orexin-1 receptor (compound incubation 120 min) came to 104 nM; at human orexin-2 receptor (compound incubation 120 min) it was 462 nM.

Regarding `O=C1CCC(c2ccccc2-c2ccccc2)N1Cc1ccc(OC(F)(F)F)cc1` (centres unmarked) [Example 287, 5-([1,1′-biphenyl]-2-yl)-1-(4-(trifluoromethoxy)benzyl)pyrrolidin-2-one], the IC50 on human orexin-1 receptor (compound incubation 120 min) worked out at 922 nM; on human orexin-2 receptor (compound incubation 120 min), 585 nM.

`O=C1CCC(c2ccccc2-c2ccccc2)N1Cc1csc(-c2ccccc2)n1` (centres unmarked) [Example 288, 5-([1,1′-biphenyl]-2-yl)-1-((2-phenylthiazol-4-yl)methyl)pyrrolidin-2-one]: the IC50 came out at 825 nM on human orexin-1 receptor (compound incubation 120 min) and 1370 nM on human orexin-2 receptor (compound incubation 120 min).

As for `CC1CC(c2ccccc2-c2ccccc2)N(Cc2cccc(-c3ccccc3)c2)C1=O` (centres unmarked) [Example 289, 5-([1,1′-biphenyl]-2-yl)-1-([1,1′-biphenyl]-3-ylmethyl)-3-methylpyrrolidin-2-one], the results for the IC50 on human orexin-1 receptor (compound incubation 120 min) and on human orexin-2 receptor (compound incubation 120 min) were 420 nM and 596 nM, respectively.

On to `Cc1nc(-c2cccc(CN3C(=O)C(C)CC3c3ccccc3-c3ccccc3)c2)cs1` (centres unmarked) [Example 290, 5-([1,1′-biphenyl]-2-yl)-3-methyl-1-(3-(2-methylthiazol-4-yl)benzyl)pyrrolidin-2-one], for which the IC50 at human orexin-1 receptor (compound incubation 120 min) was 103 nM; on human orexin-2 receptor (compound incubation 120 min), 455 nM.
